We go through three compounds from the NIST ThermoML archive (doi:10.1016/j.fluid.2015.07.049).

Structures are written as SMILES. ± gives the expanded uncertainty stated by the source.

A word on the vapor or sublimation pressure: it is the pressure of vapour in equilibrium with the condensed phase.

For the data set the following is noted: 313.15 K; Liquid.
On to `CC(C)CC(C)(C)C` [2,2,4-trimethylpentane], for which the “vapor or sublimation pressure” value is 12.94 ± 0.057 kPa.

As to `CCCCCCC` [heptane], the “vapor or sublimation pressure” value is given as 12.31 ± 0.055 kPa.

Turning to `CCCCCO` [pentan-1-ol], the “vapor or sublimation pressure” value is 0.898 ± 0.018 kPa.
